Patent US10004701B2, “Methods and compositions for treating infection” (UNIVERSITY OF ROCHESTER, priority 2012, dated 2018)
Where a name gives a salt, the structure may show the parent alone. Read-outs that look alike come from different tables or passages of the source.

Tests used:
Test in all cases: AK assay 384-well format, Prestwick library screening
E. faecium = type: cell-based, Enterococcus faecium; settings: 50 μM final drug concentration; for fold induction at 50 µM: Enterococcus faecium, 3 h
[1] = system: S. aureus strain USA300-0114; type: cell-based, Staphylococcus aureus; settings: 50 μM final drug concentration; for fold induction at 50 µM: Staphylococcus aureus, USA300, 3 h
K. pneumoniae = type: cell-based, Klebsiella pneumoniae; settings: 50 μM final drug concentration; for fold induction at 50 µM: Klebsiella pneumoniae, 3 h
[2] = system: A. baumannii strain 98-37-09; type: cell-based, Acinetobacter baumannii; settings: 50 μM final drug concentration; for fold induction at 50 µM: Acinetobacter baumannii, 983709, 3 h
P. aeruginosa = type: cell-based, Pseudomonas aeruginosa; settings: 50 μM final drug concentration; for fold induction at 50 µM: Pseudomonas aeruginosa, 3 h
E. cloacae = type: cell-based, Enterobacter cloacae; settings: 50 μM final drug concentration; for fold induction at 50 µM: Enterobacter cloacae, 3 h
E. coli = type: cell-based, Escherichia coli; settings: for fold induction at 50 µM: Escherichia coli, 3 h
[3] = cutoff for positive-scoring molecules 3-fold increase, read-out: AK-based Prestwick Library Screening Results, E. faecium (fold increase in extracellular AK activity)
[4] = cutoff for positive-scoring molecules 3-fold increase, read-out: AK-based Prestwick Library Screening Results, S. aureus (fold increase in extracellular AK activity)
[5] = cutoff for positive-scoring molecules 3-fold increase, read-out: AK-based Prestwick Library Screening Results, K. pneumoniae (fold increase in extracellular AK activity)
[6] = cutoff for positive-scoring molecules 3-fold increase, read-out: AK-based Prestwick Library Screening Results, A. baumannii (fold increase in extracellular AK activity)
[7] = cutoff for positive-scoring molecules 3-fold increase, read-out: AK-based Prestwick Library Screening Results, P. aeruginosa (fold increase in extracellular AK activity)
[8] = cutoff for positive-scoring molecules 3-fold increase, read-out: AK-based Prestwick Library Screening Results, E. cloacae (fold increase in extracellular AK activity)
[9] = 50 μM final drug concentration, cutoff for positive-scoring molecules 3-fold increase, read-out: AK-based Prestwick Library Screening Results, E. coli (fold increase in extracellular AK activity)
[10] = 384-well format, cutoff for positive-scoring molecules 3-fold increase, read-out: AK-based Prestwick Library Screening Results, E. faecium (increase in extracellular AK activity)
[11] = 384-well format, cutoff for positive-scoring molecules 3-fold increase, read-out: AK-based Prestwick Library Screening Results, S. aureus (increase in extracellular AK activity)
[12] = 384-well format, cutoff for positive-scoring molecules 3-fold increase, read-out: AK-based Prestwick Library Screening Results, K. pneumoniae (increase in extracellular AK activity)
[13] = 384-well format, cutoff for positive-scoring molecules 3-fold increase, read-out: AK-based Prestwick Library Screening Results, A. baumannii (increase in extracellular AK activity)
[14] = 384-well format, cutoff for positive-scoring molecules 3-fold increase, read-out: AK-based Prestwick Library Screening Results, P. aeruginosa (increase in extracellular AK activity)
[15] = 384-well format, cutoff for positive-scoring molecules 3-fold increase, read-out: AK-based Prestwick Library Screening Results, E. cloacae (increase in extracellular AK activity)
[16] = planktonic E. faecium, cutoff for positive-scoring molecules 3-fold increase, read-out: AK-based Prestwick Library Screening Results, E. faecium (increase in extracellular AK activity)
[17] = planktonic S. aureus, cutoff for positive-scoring molecules 3-fold increase, read-out: AK-based Prestwick Library Screening Results, S. aureus (increase in extracellular AK activity)
[18] = planktonic K. pneumoniae, cutoff for positive-scoring molecules 3-fold increase, read-out: AK-based Prestwick Library Screening Results, K. pneumoniae (increase in extracellular AK activity)
[19] = planktonic A. baumannii, cutoff for positive-scoring molecules 3-fold increase, read-out: AK-based Prestwick Library Screening Results, A. baumannii (increase in extracellular AK activity)
[20] = planktonic P. aeruginosa, cutoff for positive-scoring molecules 3-fold increase, read-out: AK-based Prestwick Library Screening Results, P. aeruginosa (increase in extracellular AK activity)
[21] = planktonic E. cloacae, cutoff for positive-scoring molecules 3-fold increase, read-out: AK-based Prestwick Library Screening Results, E. cloacae (increase in extracellular AK activity)
[22] = planktonic E. coli, 50 μM final drug concentration, cutoff for positive-scoring molecules 3-fold increase, read-out: AK-based Prestwick Library Screening Results, E. coli (increase in extracellular AK activity)

SMILES: CO[C@@]1(NC(=O)CSCC#N)C(=O)N2C(C(=O)O)=C(CSc3nnnn3C)CS[C@@H]21 [Cefmetazole sodium salt]
- fold induction at 50 µM (E. faecium; [3]): 1.4
- fold induction at 50 µM [1, 4]: 5
- fold induction at 50 µM (K. pneumoniae; [5]): 4.6
- fold induction at 50 µM [2, 6]: 1.4
- fold induction at 50 µM (P. aeruginosa; [7]): 1
- fold induction at 50 µM (E. cloacae; [8]): 1.6
- fold induction at 50 µM (E. coli; [9]): 20

SMILES: CN1Cc2c(N)cccc2C(c2ccccc2)C1 (stereo not shown) [Nomifensine maleate]
- fold induction at 50 µM (E. faecium; [10]): 0.9
- fold induction at 50 µM [1, 11]: 0.7
- fold induction at 50 µM (K. pneumoniae; [12]): 0.8
- fold induction at 50 µM [2, 13]: 0.8
- fold induction at 50 µM (P. aeruginosa; [14]): 0.8
- fold induction at 50 µM (E. cloacae; [15]): 1
- fold induction at 50 µM (E. coli; 50 μM final drug concentration, 384-well format, […], read-out: AK-based Prestwick Library Screening Results, E. coli (increase in extracellular AK activity)): 0.9

SMILES: N[C@@H](Cc1cc(I)c(Oc2ccc(O)c(I)c2)c(I)c1)C(=O)O [Liothyronine]
- fold induction at 50 µM (E. faecium; [3]): 1.1
- fold induction at 50 µM [1, 4]: 1
- fold induction at 50 µM (K. pneumoniae; [5]): 0.9
- fold induction at 50 µM [2, 6]: 1.1
- fold induction at 50 µM (P. aeruginosa; [7]): 1.1
- fold induction at 50 µM (E. cloacae; [8]): 1.6
- fold induction at 50 µM (E. coli; read-out: AK-based Prestwick Library Screening Results, E. coli (fold increase in extracellular AK activity)): 1.2

SMILES: CN1CCN(CC(=O)N2c3ccccc3C(=O)Nc3cccnc32)CC1 [Pirenzepine dihydrochloride]
- fold induction at 50 µM (E. faecium; [10]): 1.1
- fold induction at 50 µM [1, 11]: 1
- fold induction at 50 µM (K. pneumoniae; [12]): 1
- fold induction at 50 µM [2, 13]: 1.1
- fold induction at 50 µM (P. aeruginosa; [14]): 1
- fold induction at 50 µM (E. cloacae; [15]): 1.4
- fold induction at 50 µM (E. coli; 50 μM final drug concentration, 384-well format, cutoff for positive-scoring molecules 3-fold increase, read-out: AK-based Prestwick Library Screening Results, E. coli (increase in extracellular AK activity)): 1.4

SMILES: CC1=CC(=O)C2=C(C)CC[C@@H]3[C@H](OC(=O)[C@H]3C)[C@@H]12 [Leucomisine]
- AK-based Prestwick library screening result, E. faecium (fold increase in extracellular AK activity) (E. faecium; planktonic E. faecium, positive cutoff 3-fold increase): 1.1
- AK-based Prestwick library screening result, S. aureus (fold increase in extracellular AK activity) ([1]; planktonic S. aureus, positive cutoff 3-fold increase): 0.9
- AK-based Prestwick library screening result, K. pneumoniae (fold increase in extracellular AK activity) (K. pneumoniae; planktonic K. pneumoniae, positive cutoff 3-fold increase): 1.0
- AK-based Prestwick library screening result, A. baumannii (fold increase in extracellular AK activity) ([2]; planktonic A. baumannii, positive cutoff 3-fold increase): 1.0
- AK-based Prestwick library screening result, P. aeruginosa (fold increase in extracellular AK activity) (P. aeruginosa; planktonic P. aeruginosa, positive cutoff 3-fold increase): 1.1
- AK-based Prestwick library screening result, E. cloacae (fold increase in extracellular AK activity) (E. cloacae; planktonic E. cloacae, positive cutoff 3-fold increase): 1.6
- AK-based Prestwick library screening result, E. coli (fold increase in extracellular AK activity) (E. coli; planktonic E. coli, 50 μM final drug concentration, […]): 1.3

SMILES: CCN(CC)CCOCCOC(=O)C1(c2ccccc2)CCCC1 [Carbetapentane citrate]
- fold induction at 50 µM (E. faecium; planktonic, cutoff for positive 3-fold increase, read-out: AK-based Prestwick Library Screening Results, E. faecium (fold increase in extracellular AK activity)): 1
- fold induction at 50 µM ([1]; planktonic, cutoff for positive 3-fold increase, read-out: AK-based Prestwick Library Screening Results, S. aureus (fold increase in extracellular AK activity)): 1.1
- fold induction at 50 µM (K. pneumoniae; planktonic, cutoff for positive 3-fold increase, read-out: AK-based Prestwick Library Screening Results, K. pneumoniae (fold increase in extracellular AK activity)): 1
- fold induction at 50 µM ([2]; planktonic, cutoff for positive 3-fold increase, read-out: AK-based Prestwick Library Screening Results, A. baumannii (fold increase in extracellular AK activity)): 1.4
- fold induction at 50 µM (P. aeruginosa; planktonic, cutoff for positive 3-fold increase, read-out: AK-based Prestwick Library Screening Results, P. aeruginosa (fold increase in extracellular AK activity)): 1.2
- fold induction at 50 µM (E. cloacae; planktonic, cutoff for positive 3-fold increase, read-out: AK-based Prestwick Library Screening Results, E. cloacae (fold increase in extracellular AK activity)): 1.4
- fold induction at 50 µM (E. coli; 50 μM final drug concentration, planktonic, cutoff for positive 3-fold increase, read-out: AK-based Prestwick Library Screening Results, E. coli (fold increase in extracellular AK activity)): 1.4

SMILES: CCCC1O[C@@H]2C[C@H]3[C@@H]4CCC5=CC(=O)C=C[C@]5(C)[C@H]4[C@@H](O)C[C@]3(C)[C@]2(C(=O)CO)O1 (stereo partly shown) [Budesonide]
- fold induction at 50 µM (E. faecium; [16]): 0.9
- fold induction at 50 µM [1, 17]: 0.6
- fold induction at 50 µM (K. pneumoniae; [18]): 0.7
- fold induction at 50 µM [2, 19]: 0.9
- fold induction at 50 µM (P. aeruginosa; [20]): 0.9
- fold induction at 50 µM (E. cloacae; [21]): 1.4
- fold induction at 50 µM (E. coli; [22]): 0.9

SMILES: COC(=O)[C@@H]1[C@H]2C[C@H]3c4[nH]c5ccccc5c4CCN3C[C@@H]2CC[C@@H]1O [Yohimbine hydrochloride]
- fold induction at 50 µM (E. faecium; [16]): 0.9
- fold induction at 50 µM [1, 17]: 0.6
- fold induction at 50 µM (K. pneumoniae; [18]): 0.8
- fold induction at 50 µM [2, 19]: 0.8
- fold induction at 50 µM (P. aeruginosa; [20]): 0.9
- fold induction at 50 µM (E. cloacae; [21]): 1
- fold induction at 50 µM (E. coli; [22]): 0.8

SMILES: O=C(c1ccccc1)c1ccc2n1CCC2C(=O)O (stereo not shown) [Ketorolac tromethamine]
- fold induction at 50 µM (E. faecium; [3]): 1
- fold induction at 50 µM [1, 4]: 1.1
- fold induction at 50 µM (K. pneumoniae; [5]): 1
- fold induction at 50 µM [2, 6]: 1
- fold induction at 50 µM (P. aeruginosa; [7]): 1
- fold induction at 50 µM (E. cloacae; [8]): 1.4
- fold induction at 50 µM (E. coli; [9]): 1.3

SMILES: O=C(COc1ccc(Cl)cc1)N1CCN(Cc2ccc3c(c2)OCO3)CC1 [Fipexide hydrochloride]
- fold induction at 50 µM (E. faecium; planktonic E. faecium, 384-well, cutoff for positive-scoring molecules 3-fold increase, read-out: AK-based Prestwick Library Screening Results: E. faecium (increase in extracellular AK activity)): 1.1
- fold induction at 50 µM ([1]; planktonic S. aureus, 384-well, cutoff for positive-scoring molecules 3-fold increase, read-out: AK-based Prestwick Library Screening Results: S. aureus (increase in extracellular AK activity)): 0.9
- fold induction at 50 µM (K. pneumoniae; planktonic K. pneumoniae, 384-well, cutoff for positive-scoring molecules 3-fold increase, read-out: AK-based Prestwick Library Screening Results: K. pneumoniae (increase in extracellular AK activity)): 1.1
- fold induction at 50 µM ([2]; planktonic A. baumannii, 384-well, cutoff for positive-scoring molecules 3-fold increase, read-out: AK-based Prestwick Library Screening Results: A. baumannii (increase in extracellular AK activity)): 1
- fold induction at 50 µM (P. aeruginosa; planktonic P. aeruginosa, 384-well, cutoff for positive-scoring molecules 3-fold increase, read-out: AK-based Prestwick Library Screening Results: P. aeruginosa (increase in extracellular AK activity)): 1
- fold induction at 50 µM (E. cloacae; planktonic E. cloacae, 384-well, cutoff for positive-scoring molecules 3-fold increase, read-out: AK-based Prestwick Library Screening Results: E. cloacae (increase in extracellular AK activity)): 1.3
- fold induction at 50 µM (E. coli; planktonic E. coli, 50 μM final drug concentration, 384-well, cutoff for positive-scoring molecules 3-fold increase, read-out: AK-based Prestwick Library Screening Results: E. coli (increase in extracellular AK activity)): 1.3
